SMILES strings stand for the structures.

The source of these data is patent US20250127165A1, “USE OF 2-AMINO-3-PHENYLBUTYRIC ACID OR 2,6-DIAMINO-3-METHYLHEXANOIC ACID AS PLANT IMMUNE RESISTANCE INDUCER” (NANJING TIANNONG BIOTECHNOLOGY CO., LTD., priority 2021, published 2025).

For experiment [1], the system named is wheat powdery mildew. The experiment can be described thus: Induced resistance of wheat seedlings to powdery mildew infection (pot test). The conditions noted are these: for disease index / relative immunization effect: concentration higher than 1,000 nM. The experiment is classed as in vivo, wheat (NAU0686). The protocol:
2-amino-3-phenylbutyric acid was dissolved in distilled water and then gradiently diluted with distilled water into solutions of 10 nM, 100 nM, 1,000 nM, and 10,000 nM, and a blank control was set up. After germination, wheat (NAU0686) seeds were planted in sterilized soil culture pot, and cultured in a greenhouse at 23° C. (+1° C.) and 12-h light/dark conditions. When the seedlings grew to the 1-leaf-1-heart stage, a solution of 2-amino-3-phenylbutyric acid at the above concentrations was sprayed onto the stems and leaves of wheat seedlings, and repeated the treatment at 24-hour intervals for a total of two treatments. After 24 hours, fresh wheat powdery mildew spores were uniformly sprinkled onto the wheat leaves, and each treatment comprised three pots of seedlings, with 20 plants per pot. After 10 days, the disease grade of wheat in each treatment group was investigated, and the morbidity degree was recorded according to the grading standard of wheat powdery in the “Pesticides-Guidelines for the Field Efficacy Trails” (I), and the disease index and the relative immunization effect were calculated in the same manner as those of tomato spotted wilt.
(§1) Grading Standard of Wheat Powdery Mildew (per leaf): • Grade 1: The area of diseased spots accounts for 5% or less of the whole leaf area; • Grade 3: The area of diseased spots accounts for 6%-15% of the whole leaf; • Grade 5: The area of diseased spots accounts for 16%-25% of the whole leaf; • Grade 7: The area of diseased spots accounts for 26%-50% of the whole leaf; • Grade 9: The area of diseased spots accounts for 50% or more of the whole leaf area.

The subject of experiment [2] is ryegrass. As to the kind of experiment: Induced resistance of ryegrass to high temperature stress. The class given is in vivo. The conditions noted are these: for heat injury index (%): 45° C. 12 h, 7 days recovery. The protocol: 2,6-diamino-3-methylhexanoic acid was dissolved in distilled water and then gradiently diluted with distilled water into solutions of 1 nM, 10 nM, 100 nM, and 1,000 nM, and a blank control was set up, while 0.02% Tween 20 was added as surfactant. Four groups of replicates were set up for each concentration, and set up a blank control at room temperature. Ryegrass seeds were weighed and planted in a pot with a diameter of 8.5 cm at 0.8 g per pot, and transferred to a greenhouse with a temperature of 25° C., a humidity of 60%-70%, and a light intensity of 200 μmol m^−2s^−1 (12 h light/12 h darkness). After 7 days of growth, ryegrass was treated by spraying 2,6-diamino-3-methylhexanoic acid solution on the leaf surface, and spraying twice within 24 hours. 24 hours after the second spray, the plants were transferred to a light incubator at 45° C. for high temperature stress treatment. After 12 hours of treatment, they were removed and transferred to a greenhouse at 25° C. for 7 days for recovery. The injured conditions of the plants were observed and the grade of hot injury was calculated, where the grading standard of heat injury is shown in Table 8, and the formula for calculating the heat injury index is as follows.

The subject of experiment [3] is lysine monooxygenase. The conditions noted are these: Ohnishi et al., 1976; cited from earlier work.
The subject of experiment [4] is wheat powdery mildew. As to the kind of experiment: Field trial of induced resistance of wheat to powdery mildew. The class given is in vivo. The conditions noted are these: 1,000 nM, field spray. On the procedure:
A solution of 2-amino-3-phenylbutyric acid at a concentration of 1,000 nM (with 0.02% by volume of surfactant Tween 20) was sprayed onto the stems and leaves in the field. The treatment included spraying 0.02% by volume of surfactant Tween 20 as an auxiliary control, and Atailing (30 g/mu) as a positive control, with two replications per treatment. After the spray, the disease grade of wheat in each treatment group was investigated, and the morbidity degree was recorded according to the grading standard of wheat powdery in the “Pesticides-Guidelines for the Field Efficacy Trails” (I), and the disease index and the relative immunization effect were calculated in the same manner as those of tomato spotted wilt. After the harvested wheat seeds were dried, the thousand grain weight of wheat seeds from different treatments was measured.
as §1

In experiment [5] the test system is Leuconostoc dextranicum. The conditions noted are these: Edelson & Keeley, 1963; cited from earlier work.
In experiment [6] the test system is arthritis in rats. The conditions noted are these: 100 mg/kg and 200 mg/kg; Ren et al., 2019; cited from earlier work.

For the compound `CC(CCCN)C(N)C(=O)O` (centres unmarked) [2,6-diamino-3-methylhexanoic acid], the “relative immunization effect (%)” value in experiment [1] (10 nM) is listed as 28.13%; in experiment [1] (100 nM), 48.99%; in experiment [1] (1,000 nM) it was 65.26%; in experiment [1] (10,000 nM), 73.45%. Further, the disease index entry in experiment [1] is reported as “lower than 50”. In experiment [1], the relative immunization effect entry is given as “more than 50%”. In addition, the “heat injury index (%)” value in experiment [2] (1 nM) came out at 60%; in experiment [2] (10 nM), 54%; in experiment [2] (100 nM), 40%; in experiment [2] (1,000 nM), 22%. Besides, the “decrease of heat injury index” value in experiment [2] (1,000 nM) was 69%. Besides, in experiment [3], the “substrate activity for lysine monooxygenase” value was “no substrate activity”.
In the case of `CC(c1ccccc1)C(N)C(=O)O` (centres unmarked) [2-amino-3-phenylbutyric acid], the “relative immunization effect (%)” value in experiment [1] (10 nM) stood at 19.88%; in experiment [1] (100 nM) it was 30.77%; in experiment [1] (1,000 nM), 55.38%; in experiment [1] (10,000 nM) it was 66.92%; in experiment [4], 51.72%. Besides, in experiment [1], the disease index result is “lower than 50”. The relative immunization effect result in experiment [1] is recorded as “more than 50%”. The “thousand grain weight” value in experiment [4] was 38.87 g. Also, the “thousand grain weight (g)” value in experiment [4] was 38.87 ± 0.20 a g. Besides, the “effect on growth of Leuconostoc dextranicum” value in experiment [5] is “inhibited the growth”. For the same compound, the “effect on arthritis in rats” value in experiment [6] is “can alleviate arthritis”.
